# In article PMC11822212, “High-throughput screening identifies Aurora kinase B as a critical therapeutic target for Merkel cell carcinoma” (Nature Communications, 2025):
# Like-named read-outs stand apart in the source and are kept apart here.
# Legend:
# NIH-3T3 cells = test: qHTS cell viability (CellTiter-Glo, 72 h; primary screen), control cell line; assay type: cell-based, mouse
# WAGA cells (VP-MCC) = test: qHTS cell viability (CellTiter-Glo, 72 h; primary and follow-up small molecule screen); assay type: cell-based, human
# [1] = tested on: MCC cell lines (WAGA, MKL-1, MKL-2, MCC13, MCC26, UISO); test: qHTS cell viability, all six MCC cell lines as a group (mean AUC, MCC.avg); assay type: cell-based, human
# [2] = tested on: VN-MCC cell lines (MCC13, MCC26, UISO); test: qHTS cell viability, VN-MCC cell lines as a group (mean AUC, VN.MCC.avg); assay type: cell-based, human
# MKL-1 cells (VP-MCC) = test: qHTS cell viability (CellTiter-Glo, 72 h; primary and follow-up small molecule screen); assay type: cell-based, human
# MKL-2 cells (VP-MCC) = test: as above; assay type: cell-based, human
# [3] = tested on: six MCC cell lines and four control cell lines; test: qHTS cell viability, all 10 cell lines screened; assay type: cell-based
# HACAT cells = test: qHTS cell viability (CellTiter-Glo, 72 h; primary screen), control cell line; assay type: cell-based, human
# [4] = tested on: VP-MCC cell lines (WAGA, MKL-1, MKL-2); test: qHTS cell viability, VP-MCC cell lines as a group (mean AUC, VP.MCC.avg); assay type: cell-based, human
# HEK293T cells = test: qHTS cell viability (CellTiter-Glo, 72 h; primary screen), control cell line; assay type: cell-based, human
# [5] = tested on: control cell lines (HACAT, HEK293T, CRL-7250, NIH-3T3); test: qHTS cell viability, control cell lines as a group (mean AUC, Control.avg); assay type: cell-based
# MCC26 cells (VN-MCC) = test: qHTS cell viability (CellTiter-Glo, 72 h; primary and follow-up small molecule screen); assay type: cell-based, human
# CRL-7250 cells = test: qHTS cell viability (CellTiter-Glo, 72 h; primary screen), control cell line; assay type: cell-based
# MCC13 cells (VN-MCC) = test: qHTS cell viability (CellTiter-Glo, 72 h; primary and follow-up small molecule screen); assay type: cell-based, human
# UISO cells (VN-MCC) = test: as above; assay type: cell-based, human
# [6] = MIPE library, 11-point DRC, control cell line, sheet S2E
# [7] = MIPE library, 11-point DRC, sheet S2E
smiles,measurement,setting,value
CC1(C)CCC(c2ccc(Cl)cc2)=C(CN2CCN(c3ccc(C(=O)N[S+](=O)([O-])c4ccc(N[C@H](CCN5CCOCC5)CSc5ccccc5)c([S+](=O)([O-])C(F)(F)F)c4)cc3)CC2)C1 [ABT-263 (Navitoclax)],NIH3T3_AUC,NIH-3T3 cells; [6],462.454
same,WAGA_AUC,WAGA cells (VP-MCC); [7],250.192
same,MCC_Avg_AUC,"[1]; MIPE library, mean AUC of six MCC cell lines, sheet S2E",382.812
same,Control-VN-MCC,"[2]; MIPE library, Control AUC minus VN-MCC AUC (therapeutic window), sheet S2E",-31.9962
same,VN-MCC_Avg_AUC,"[2]; MIPE library, mean AUC of VN-MCC cell lines, sheet S2E",493.32
same,MKL1_AUC,MKL-1 cells (VP-MCC); [7],289.046
same,MKL2_AUC,MKL-2 cells (VP-MCC); [7],277.677
same,Control-MCC,"[3]; MIPE library, Control AUC minus MCC AUC (therapeutic window), sheet S2E",78.5112
same,HACAT_AUC,HACAT cells; [6],444.442
same,Control-VP-MCC,"[4]; MIPE library, Control AUC minus VP-MCC AUC (therapeutic window), sheet S2E",189.019
same,VP-MCC_Avg_AUC,"[4]; MIPE library, mean AUC of VP-MCC cell lines, sheet S2E",272.305
same,HEK293T_AUC,HEK293T cells; [6],470.677
same,Control_Avg_AUC,"[5]; MIPE library, mean AUC of control cell lines, sheet S2E",461.324
same,MCC26_AUC,MCC26 cells (VN-MCC); [7],476.41
same,CRL7250_AUC,CRL-7250 cells; [6],467.721
same,MCC13_AUC,MCC13 cells (VN-MCC); [7],470.158
same,UISO_AUC,UISO cells (VN-MCC); [7],533.391
CCCCCCCCCCCC[N+](C)(C)CCOc1ccccc1 [Domiphen bromide],NIH3T3_AUC,NIH-3T3 cells,435.478
same,WAGA_AUC,WAGA cells (VP-MCC),371.251
same,MCC_Avg_AUC,[1],384.634
same,Control-VN-MCC,[2],9.236
same,VN-MCC_Avg_AUC,[2],417.789
same,MKL1_AUC,MKL-1 cells (VP-MCC),361.63
same,MKL2_AUC,MKL-2 cells (VP-MCC),321.555
same,Control-MCC,[3],42.3914
same,HACAT_AUC,HACAT cells,409.601
same,Control-VP-MCC,[4],75.5464
same,VP-MCC_Avg_AUC,[4],351.479
same,HEK293T_AUC,HEK293T cells,413.225
same,Control_Avg_AUC,[5],427.025
same,MCC26_AUC,MCC26 cells (VN-MCC),403.074
same,CRL7250_AUC,CRL-7250 cells,449.796
same,MCC13_AUC,MCC13 cells (VN-MCC),479.965
same,UISO_AUC,UISO cells (VN-MCC),370.326
